Source: PMC5224920, “Assessing the mechanism and therapeutic potential of modulators of the human Mediator complex-associated protein kinases” (eLife, 2016)

Test system: 12 single or co-culture in vitro tissue models of primary cells
Assay: Culture/co-culture cell model panel, extracellular biomarkers (DiscoveRx); as to CCL2/MCP-1: reference of the scale not given here; as to CD141/Thrombomodulin: reference of the scale not given here; as to CD142/Tissue Factor: reference of the scale not given here; as to CD38: reference of the scale not given here; as to CD40: reference of the scale not given here; as to CD69: reference of the scale not given here; as to CXCL8/IL-8: reference of the scale not given here; as to CXCL9/MIG: reference of the scale not given here; as to IL-1alpha: reference of the scale not given here; as to M-CSF: reference of the scale not given here; as to PBMC Cytotoxicity: reference of the scale not given here; as to Proliferation: reference of the scale not given here; as to SRB: reference of the scale not given here; as to sPGE2: reference of the scale not given here; as to sTNF-alpha: reference of the scale not given here
Assay type: cell-based, human

Question: How did the IL-1alpha (LPS Huvec+PBMC, 1.00E0 nM) turn out when `CN1c2ccc(-c3cncc(Cl)c3N3CCC4(CC3)CNC(=O)O4)cc2CS1(=O)=O` [CMPD2] was run?
Answer: The IL-1alpha was 0.057.

Question: What about the M-CSF (LPS Huvec+PBMC, 1.00E0 nM) of the same compound?
Answer: Its M-CSF is 0.019.

Question: What about the SRB (LPS Huvec+PBMC, 1.00E0 nM) of the same compound?
Answer: The SRB was -0.024.

Question: And the sPGE2 (LPS Huvec+PBMC, 1.00E0 nM)?
Answer: Its sPGE2 is 0.070.

Question: And the sTNF-alpha (LPS Huvec+PBMC, 1.00E0 nM)?
Answer: Its sTNF-alpha is 0.028.

Question: What about the CCL2/MCP-1 (LPS Huvec+PBMC, 1.00E1 nM) of the same compound?
Answer: Its CCL2/MCP-1 is -0.031.

Question: And the CD40 (LPS Huvec+PBMC, 1.00E1 nM)?
Answer: Its CD40 is -0.098.

Question: And the CD69 (LPS Huvec+PBMC, 1.00E1 nM)?
Answer: Its CD69 is -0.024.

Question: And the CD106/VCAM-1 (LPS Huvec+PBMC, 1.00E1 nM)?
Answer: The CD106/VCAM-1 was 0.019.

Question: And the CD141/Thrombomodulin (LPS Huvec+PBMC, 1.00E1 nM)?
Answer: Its CD141/Thrombomodulin is 0.064.

Question: What about the “CD142/Tissue Factor” value (LPS Huvec+PBMC, 1.00E1 nM) of the same compound?
Answer: The value was 0.086.

Question: What about the CXCL8/IL-8 (LPS Huvec+PBMC, 1.00E1 nM) of the same compound?
Answer: Its CXCL8/IL-8 is -0.035.

Question: And the IL-1alpha (LPS Huvec+PBMC, 1.00E1 nM)?
Answer: The IL-1alpha was 0.041.

Question: What about the M-CSF (LPS Huvec+PBMC, 1.00E1 nM) of the same compound?
Answer: Its M-CSF is -0.003.

Question: And the SRB (LPS Huvec+PBMC, 1.00E1 nM)?
Answer: The SRB was -0.065.

Question: What about the sPGE2 (LPS Huvec+PBMC, 1.00E1 nM) of the same compound?
Answer: Its sPGE2 is 0.126.

Question: What about the sTNF-alpha (LPS Huvec+PBMC, 1.00E1 nM) of the same compound?
Answer: Its sTNF-alpha is 0.036.

Question: And the CCL2/MCP-1 (LPS Huvec+PBMC, 1.00E2 nM)?
Answer: Its CCL2/MCP-1 is -0.057.

Question: What about the CD40 (LPS Huvec+PBMC, 1.00E2 nM) of the same compound?
Answer: Its CD40 is -0.098.

Question: What about the CD69 (LPS Huvec+PBMC, 1.00E2 nM) of the same compound?
Answer: The CD69 was 0.050.

Question: And the CD106/VCAM-1 (LPS Huvec+PBMC, 1.00E2 nM)?
Answer: The CD106/VCAM-1 was 0.052.

Question: And the CD141/Thrombomodulin (LPS Huvec+PBMC, 1.00E2 nM)?
Answer: Its CD141/Thrombomodulin is 0.070.

Question: What about the “CD142/Tissue Factor” value (LPS Huvec+PBMC, 1.00E2 nM) of the same compound?
Answer: Its value is 0.084.

Question: What about the CXCL8/IL-8 (LPS Huvec+PBMC, 1.00E2 nM) of the same compound?
Answer: Its CXCL8/IL-8 is -0.122.

Question: What about the IL-1alpha (LPS Huvec+PBMC, 1.00E2 nM) of the same compound?
Answer: Its IL-1alpha is 0.033.

Question: What about the M-CSF (LPS Huvec+PBMC, 1.00E2 nM) of the same compound?
Answer: The M-CSF was -0.006.

Question: What about the SRB (LPS Huvec+PBMC, 1.00E2 nM) of the same compound?
Answer: Its SRB is -0.068.

Question: And the sPGE2 (LPS Huvec+PBMC, 1.00E2 nM)?
Answer: Its sPGE2 is 0.155.

Question: What about the sTNF-alpha (LPS Huvec+PBMC, 1.00E2 nM) of the same compound?
Answer: Its sTNF-alpha is 0.039.

Question: What about the CCL2/MCP-1 (LPS Huvec+PBMC, 1.00E3 nM) of the same compound?
Answer: The CCL2/MCP-1 was -0.096.

Question: And the CD40 (LPS Huvec+PBMC, 1.00E3 nM)?
Answer: Its CD40 is -0.100.

Question: What about the CD69 (LPS Huvec+PBMC, 1.00E3 nM) of the same compound?
Answer: The CD69 was 0.022.

Question: And the CD106/VCAM-1 (LPS Huvec+PBMC, 1.00E3 nM)?
Answer: Its CD106/VCAM-1 is 0.055.

Question: What about the CD141/Thrombomodulin (LPS Huvec+PBMC, 1.00E3 nM) of the same compound?
Answer: The CD141/Thrombomodulin was 0.054.

Question: And the “CD142/Tissue Factor” value (LPS Huvec+PBMC, 1.00E3 nM)?
Answer: The value was 0.086.

Question: What about the CXCL8/IL-8 (LPS Huvec+PBMC, 1.00E3 nM) of the same compound?
Answer: Its CXCL8/IL-8 is -0.148.

Question: What about the IL-1alpha (LPS Huvec+PBMC, 1.00E3 nM) of the same compound?
Answer: Its IL-1alpha is 0.00095.

Question: What about the M-CSF (LPS Huvec+PBMC, 1.00E3 nM) of the same compound?
Answer: The M-CSF was -0.00124.

Question: And the SRB (LPS Huvec+PBMC, 1.00E3 nM)?
Answer: Its SRB is -0.066.

Question: And the sPGE2 (LPS Huvec+PBMC, 1.00E3 nM)?
Answer: Its sPGE2 is 0.173.

Question: What about the sTNF-alpha (LPS Huvec+PBMC, 1.00E3 nM) of the same compound?
Answer: The sTNF-alpha was 0.034.

Question: What about the CCL2/MCP-1 (LPS Huvec+PBMC, 1.00E4 nM) of the same compound?
Answer: The CCL2/MCP-1 was -0.102.

Question: What about the CD40 (LPS Huvec+PBMC, 1.00E4 nM) of the same compound?
Answer: Its CD40 is -0.101.

Question: And the CD69 (LPS Huvec+PBMC, 1.00E4 nM)?
Answer: The CD69 was 0.034.

Question: What about the CD106/VCAM-1 (LPS Huvec+PBMC, 1.00E4 nM) of the same compound?
Answer: Its CD106/VCAM-1 is 0.035.

Question: What about the CD141/Thrombomodulin (LPS Huvec+PBMC, 1.00E4 nM) of the same compound?
Answer: The CD141/Thrombomodulin was 0.062.

Question: What about the “CD142/Tissue Factor” value (LPS Huvec+PBMC, 1.00E4 nM) of the same compound?
Answer: Its value is 0.080.

Question: What about the CXCL8/IL-8 (LPS Huvec+PBMC, 1.00E4 nM) of the same compound?
Answer: The CXCL8/IL-8 was -0.154.

Question: And the IL-1alpha (LPS Huvec+PBMC, 1.00E4 nM)?
Answer: Its IL-1alpha is -0.070.

Question: What about the M-CSF (LPS Huvec+PBMC, 1.00E4 nM) of the same compound?
Answer: Its M-CSF is -0.021.

Question: What about the SRB (LPS Huvec+PBMC, 1.00E4 nM) of the same compound?
Answer: Its SRB is -0.070.

Question: What about the sPGE2 (LPS Huvec+PBMC, 1.00E4 nM) of the same compound?
Answer: Its sPGE2 is 0.182.

Question: What about the sTNF-alpha (LPS Huvec+PBMC, 1.00E4 nM) of the same compound?
Answer: The sTNF-alpha was -0.175.

Question: And the CCL2/MCP-1 (SAg, 1.00E0 nM)?
Answer: The CCL2/MCP-1 was 0.032.

Question: And the CD38 (SAg, 1.00E0 nM)?
Answer: Its CD38 is -0.023.

Question: And the CD40 (SAg, 1.00E0 nM)?
Answer: The CD40 was -0.085.

Question: What about the CD69 (SAg, 1.00E0 nM) of the same compound?
Answer: The CD69 was 0.033.

Question: What about the CXCL8/IL-8 (SAg, 1.00E0 nM) of the same compound?
Answer: Its CXCL8/IL-8 is 0.067.

Question: And the CXCL9/MIG (SAg, 1.00E0 nM)?
Answer: The CXCL9/MIG was -0.004.

Question: What about the “PBMC Cytotoxicity” value (SAg, 1.00E0 nM) of the same compound?
Answer: The value was 0.038.

Question: What about the Proliferation (SAg, 1.00E0 nM) of the same compound?
Answer: Its Proliferation is 0.024.

Question: And the SRB (SAg, 1.00E0 nM)?
Answer: Its SRB is -0.013.

Question: And the CCL2/MCP-1 (SAg, 1.00E1 nM)?
Answer: Its CCL2/MCP-1 is -0.012.

Question: What about the CD38 (SAg, 1.00E1 nM) of the same compound?
Answer: The CD38 was -0.063.

Question: And the CD40 (SAg, 1.00E1 nM)?
Answer: Its CD40 is -0.169.

Question: What about the CD69 (SAg, 1.00E1 nM) of the same compound?
Answer: The CD69 was 0.018.

Question: And the CXCL8/IL-8 (SAg, 1.00E1 nM)?
Answer: The CXCL8/IL-8 was -0.038.

Question: And the CXCL9/MIG (SAg, 1.00E1 nM)?
Answer: Its CXCL9/MIG is -0.018.

Question: What about the “PBMC Cytotoxicity” value (SAg, 1.00E1 nM) of the same compound?
Answer: The value was 0.015.

Question: What about the Proliferation (SAg, 1.00E1 nM) of the same compound?
Answer: Its Proliferation is 0.017.

Question: And the SRB (SAg, 1.00E1 nM)?
Answer: Its SRB is -0.031.

Question: And the CCL2/MCP-1 (SAg, 1.00E2 nM)?
Answer: Its CCL2/MCP-1 is -0.066.

Question: What about the CD38 (SAg, 1.00E2 nM) of the same compound?
Answer: Its CD38 is -0.040.

Question: What about the CD40 (SAg, 1.00E2 nM) of the same compound?
Answer: Its CD40 is -0.131.

Question: What about the CD69 (SAg, 1.00E2 nM) of the same compound?
Answer: Its CD69 is 0.026.

Question: What about the CXCL8/IL-8 (SAg, 1.00E2 nM) of the same compound?
Answer: The CXCL8/IL-8 was -0.133.

Question: What about the CXCL9/MIG (SAg, 1.00E2 nM) of the same compound?
Answer: Its CXCL9/MIG is -0.055.

Question: What about the “PBMC Cytotoxicity” value (SAg, 1.00E2 nM) of the same compound?
Answer: Its value is 0.00148.

Question: And the Proliferation (SAg, 1.00E2 nM)?
Answer: Its Proliferation is 0.021.

Question: And the SRB (SAg, 1.00E2 nM)?
Answer: The SRB was -0.056.

Question: And the CCL2/MCP-1 (SAg, 1.00E3 nM)?
Answer: Its CCL2/MCP-1 is -0.072.

Question: What about the CD38 (SAg, 1.00E3 nM) of the same compound?
Answer: The CD38 was -0.069.

Question: And the CD40 (SAg, 1.00E3 nM)?
Answer: The CD40 was -0.122.

Question: What about the CD69 (SAg, 1.00E3 nM) of the same compound?
Answer: The CD69 was 0.050.

Question: And the CXCL8/IL-8 (SAg, 1.00E3 nM)?
Answer: Its CXCL8/IL-8 is -0.196.

Question: What about the CXCL9/MIG (SAg, 1.00E3 nM) of the same compound?
Answer: Its CXCL9/MIG is -0.061.

Question: What about the “PBMC Cytotoxicity” value (SAg, 1.00E3 nM) of the same compound?
Answer: The value was 0.00529.

Question: And the Proliferation (SAg, 1.00E3 nM)?
Answer: Its Proliferation is 0.010.

Question: What about the SRB (SAg, 1.00E3 nM) of the same compound?
Answer: The SRB was -0.049.

Question: What about the CCL2/MCP-1 (SAg, 1.00E4 nM) of the same compound?
Answer: The CCL2/MCP-1 was -0.111.

Question: What about the CD38 (SAg, 1.00E4 nM) of the same compound?
Answer: Its CD38 is -0.058.

Question: And the CD40 (SAg, 1.00E4 nM)?
Answer: Its CD40 is -0.144.

Question: And the CD69 (SAg, 1.00E4 nM)?
Answer: The CD69 was 0.006.

Question: And the CXCL8/IL-8 (SAg, 1.00E4 nM)?
Answer: The CXCL8/IL-8 was -0.208.

Question: What about the CXCL9/MIG (SAg, 1.00E4 nM) of the same compound?
Answer: Its CXCL9/MIG is -0.061.

Question: And the “PBMC Cytotoxicity” value (SAg, 1.00E4 nM)?
Answer: Its value is 0.00852.

Question: What about the Proliferation (SAg, 1.00E4 nM) of the same compound?
Answer: Its Proliferation is -0.041.

Question: And the SRB (SAg, 1.00E4 nM)?
Answer: The SRB was -0.053.
